According to PMC4890785, “Recombinant L-Asparaginase from Zymomonas mobilis: A Potential New Antileukemic Agent Produced in Escherichia coli” (PLoS ONE, 2016):

Target: T1, L-asparaginase from Z. mobilis (L-AspZ) (Zymomonas mobilis, UniProt Q5NLV3)
T1 construct: gene ZMO1683; first 29 residues (signal peptide) removed; codon-optimised gene in E. coli BL21(DE3): pET26b (pelB, extracellular) or pET28a (cytoplasmic); not purified
Test: ammonia release, salicylate-hypochlorite (indophenol) colorimetry
Type: biochemical
Settings: sonicated E. coli lysate or concentrated culture medium; 37 °C, pH 7.3, 20 mM sodium phosphate; asparagine stock 5 g/L mixed 1:1; uninduced control tested

T1 sequence (Q5NLV3 entry or part of it): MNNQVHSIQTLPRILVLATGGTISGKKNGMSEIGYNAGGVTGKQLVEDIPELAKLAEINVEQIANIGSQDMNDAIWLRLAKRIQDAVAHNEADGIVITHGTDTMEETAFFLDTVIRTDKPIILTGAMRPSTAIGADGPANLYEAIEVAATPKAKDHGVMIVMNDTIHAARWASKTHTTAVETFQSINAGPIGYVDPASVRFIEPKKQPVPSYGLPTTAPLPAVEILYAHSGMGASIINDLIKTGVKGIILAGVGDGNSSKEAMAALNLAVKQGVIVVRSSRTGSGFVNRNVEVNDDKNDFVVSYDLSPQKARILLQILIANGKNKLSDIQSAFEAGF

Structure (SMILES): NC(=O)C[C@H](N)C(=O)O [asparagine]
- ammonia release, salicylate-hypochlorite (indophenol) colorimetry: Enzyme activity was measured by hydrolyzing asparagine to aspartate and ammonia
